Experiments:
human NCX1 = human NCX1 (Homo sapiens, UniProt P32418); settings: 5 mM nickel
Experimental: (§1) The cultured cells were detached by application of iced PBS (phosphate buffered saline) or Trypsin at least 18 hours prior to electrophysiological experiments and replated on cover slips.
(§2) Two bath solutions and pipette solutions were prepared for patch clamp experiments with the following composition:
(§3) 135 mM NMG, 5 mM MgCl2, 2 mM CaCl2, 4 mM EGTA, 30 mM HEPES, pH 7.4
(§4) 139 mM NMG, 5 mM MgCl2, 2 mM CaCl2, 30 mM HEPES, pH 7.4
(§5) 100 mM NaCl, 5 mM KCl, 2 mM CaCl2, 2 mM MgCl2, 2.1 mM EGTA, 35 mM TEA-Cl, 4 mM Mg-ATP, 0.5 mM Na-GTP,
(§6) 5.63 mM Phosphocreatine, 30 mM HEPES, […] Creatine Phosphokinase (70 ml pipette solution+3500 U filtered Creatine Phosphokinase, ad 100 ml pipette solution), pH 7.4 (NaOH)
(§7) To inhibit NCX currents, 5 mM nickel chloride was dissolved in bath solution “high calcium”. NCX activity was measured using the patch clamp technique in the whole cell configuration. The cells were clamped at room temperature (20-25° C.) to a holding potential of 0 mV. NCX currents were evoked by application of 2 mM external calcium (bathsolution “high calcium”) for 4 seconds (=control). Calcium application was repeated every 20 s. After 5 stimulations, inhibition by nickel was tested using the same protocol but activation with calcium in the presence of 5 mM nickel (5 replicates). Finally, 5 calcium pulses were applied again for washout studies. To characterize NCX currents, peak currents, transported charge and the time constant of signal decay were investigated and analyzed according to the report. All data are presented as mean±SEM.

human NCX2 = human NCX2 (Homo sapiens, UniProt Q9UPR5)
Experimental: as §1, §2, §3, §4, §5, §6, §7

human NCX3 = human NCX3 (Homo sapiens, UniProt P57103)
Experimental: as §1, §2, §3, §4, §5, §6, §7

[1] = after 5 mM nickel, 5 calcium pulses for washout

Sequence of human NCX3 (P57103 31-924 isoform P57103-6 limits assumed): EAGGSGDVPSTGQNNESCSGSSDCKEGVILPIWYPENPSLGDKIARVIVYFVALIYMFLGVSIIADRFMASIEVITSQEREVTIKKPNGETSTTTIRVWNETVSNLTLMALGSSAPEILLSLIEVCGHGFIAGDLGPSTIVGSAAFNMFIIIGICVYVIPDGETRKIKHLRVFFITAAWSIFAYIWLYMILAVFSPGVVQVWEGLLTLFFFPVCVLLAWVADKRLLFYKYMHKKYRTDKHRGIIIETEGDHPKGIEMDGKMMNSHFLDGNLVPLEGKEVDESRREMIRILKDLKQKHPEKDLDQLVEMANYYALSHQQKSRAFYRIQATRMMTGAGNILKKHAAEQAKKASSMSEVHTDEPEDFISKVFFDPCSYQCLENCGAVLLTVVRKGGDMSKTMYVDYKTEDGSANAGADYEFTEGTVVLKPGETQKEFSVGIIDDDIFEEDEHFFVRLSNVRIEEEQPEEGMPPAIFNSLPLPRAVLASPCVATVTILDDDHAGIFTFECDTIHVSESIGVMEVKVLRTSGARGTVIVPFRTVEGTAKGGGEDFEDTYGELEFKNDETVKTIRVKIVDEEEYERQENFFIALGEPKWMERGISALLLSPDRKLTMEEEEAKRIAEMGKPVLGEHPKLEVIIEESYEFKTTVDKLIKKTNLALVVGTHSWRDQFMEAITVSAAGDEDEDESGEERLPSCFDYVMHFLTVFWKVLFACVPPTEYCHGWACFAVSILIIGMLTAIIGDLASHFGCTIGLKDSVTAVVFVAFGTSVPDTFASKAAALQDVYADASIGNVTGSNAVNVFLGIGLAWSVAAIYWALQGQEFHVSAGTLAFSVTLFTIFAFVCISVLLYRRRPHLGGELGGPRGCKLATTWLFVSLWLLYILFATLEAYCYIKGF
Sequence of human NCX2 (Q9UPR5 21-921): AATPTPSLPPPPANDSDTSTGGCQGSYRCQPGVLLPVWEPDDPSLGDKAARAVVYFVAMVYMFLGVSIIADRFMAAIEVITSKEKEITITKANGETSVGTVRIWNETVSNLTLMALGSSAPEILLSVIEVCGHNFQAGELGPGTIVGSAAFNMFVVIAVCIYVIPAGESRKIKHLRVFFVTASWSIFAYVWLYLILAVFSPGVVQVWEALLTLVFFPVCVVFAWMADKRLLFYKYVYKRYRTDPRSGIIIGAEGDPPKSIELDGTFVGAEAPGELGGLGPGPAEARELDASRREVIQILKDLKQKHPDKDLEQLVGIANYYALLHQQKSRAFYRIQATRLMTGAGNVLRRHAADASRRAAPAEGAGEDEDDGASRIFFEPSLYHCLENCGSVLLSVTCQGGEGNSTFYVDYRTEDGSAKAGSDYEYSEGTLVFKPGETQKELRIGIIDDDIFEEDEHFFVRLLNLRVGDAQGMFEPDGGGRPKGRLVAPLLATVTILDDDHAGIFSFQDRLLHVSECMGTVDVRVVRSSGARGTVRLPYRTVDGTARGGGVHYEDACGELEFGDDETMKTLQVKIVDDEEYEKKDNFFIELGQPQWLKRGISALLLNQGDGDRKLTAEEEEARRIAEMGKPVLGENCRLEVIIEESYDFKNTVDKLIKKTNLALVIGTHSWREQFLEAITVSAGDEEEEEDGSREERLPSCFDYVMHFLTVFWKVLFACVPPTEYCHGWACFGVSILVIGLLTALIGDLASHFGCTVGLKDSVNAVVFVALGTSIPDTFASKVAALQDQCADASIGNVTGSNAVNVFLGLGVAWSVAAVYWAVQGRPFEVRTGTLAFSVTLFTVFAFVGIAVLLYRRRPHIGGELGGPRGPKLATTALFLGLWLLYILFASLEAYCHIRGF

[Cl][Ni][Cl] [nickel, nickel chloride]
Block of NCX1 outward currents (in words) (human NCX1): completely and reversible blocked
Block of NCX1 outward currents (human NCX1; reverse mode, 2 mM external Ca2+, holding potential 0 mV): 91.3±3.3%
Block of NCX2 outward currents (in words) (human NCX2; 5 mM nickel): completely and reversible blocked
Washout after nickel block, NCX2 currents (human NCX2; [1]): 100.2±1.9%
Block of NCX3 outward currents (in words) (human NCX3; 5 mM nickel): completely and reversible blocked
Washout after nickel block, NCX3 currents (human NCX3; [1]): 111.5±2.4%
